Reference: BindingDB's records for doi:10.1021/jm200004e (University of Louisiana At Monroe, 2011)
pIC50: −log10 of the molar value. *1 amine or outer side, *2 acyl side, *3 side chain or, on linkers, in order; H or OH if unused. Where a SMILES comes first, the peptide text is derived from it. [ ]: non-standard residue; d: D form. X1 = O=C(CCc1cccc2c1oc1c(CCN[*:1])cccc12)[*:2]

Experiment: Inhibition of CD2 assessed as inhibition of CD2-CD58 protein-protein interaction mediated cell adhesion between CD58 expressing sheep red blood cells and CD2 expressing human Jurkat cells by E-rosettes assay

Structure (SMILES): CC[C@H](C)[C@@H]1NC(=O)[C@H](Cc2ccc(O)cc2)NC(=O)[C@H](CC(=O)O)NC(=O)CCc2cccc3c2Oc2c(cccc2-3)CCNC(=O)[C@H](CC(=O)O)NC(=O)[C@H](CC(=O)O)NC(=O)[C@H](CCCCN)NC1=O (cyclo(DD[X1]DYIK))
- pIC50: 7.59
